Experimental data as given in ChEMBL document CHEMBL5532698, “2,3-Dihydroquinazolin-4(1H)-ones and quinazolin-4(3H)-ones as broad-spectrum cytotoxic agents and their impact on tubulin polymerisation” (RSC Med Chem, 2024).

Columns and labels:
HT-29 [1] = assay: Antiproliferative activity against human HT-29 cells assessed as cell growth inhibition incubated for 72 hrs by MTT assay; type: functional
U-87 MG [2] = assay: Antiproliferative activity against human U87 cells assessed as cell growth inhibition incubated for 72 hrs by MTT assay; type: functional, U-87MG ATCC
MCF7 [3] = assay: Antiproliferative activity against human MCF7 cells assessed as cell growth inhibition incubated for 72 hrs by MTT assay; type: functional
A2780 [4] = assay: Antiproliferative activity against human A2780 cells assessed as cell growth inhibition incubated for 72 hrs by MTT assay; type: functional
NCI-H460 [5] = assay: Antiproliferative activity against human NCI-H460 cells assessed as cell growth inhibition incubated for 72 hrs by MTT assay; type: functional
A-431 [6] = assay: Antiproliferative activity against human A-431 cells assessed as cell growth inhibition incubated for 72 hrs by MTT assay; type: functional
DU-145 [7] = assay: Antiproliferative activity against human DU-145 cells assessed as cell growth inhibition incubated for 72 hrs by MTT assay; type: functional
BE(2)-C [8] = assay: Antiproliferative activity against human BE2C cells assessed as cell growth inhibition incubated for 72 hrs by MTT assay; type: functional
[9] = Antiproliferative activity against human SJG2 cells assessed as cell growth inhibition incubated for 72 hrs by MTT assay; type: functional; conditions: SJ-G2
MIA PaCa-2 [10] = assay: Antiproliferative activity against human MIA PaCa-2 cells assessed as cell growth inhibition incubated for 72 hrs by MTT assay; type: functional
[11] = Cytotoxicity against human MCF-10A cells assessed as cell growth inhibition incubated for 72 hrs by MTT assay; type: toxicity, cell-based
HT-29 [12] = assay: Antiproliferative activity against human HT-29 cells assessed as cell growth inhibition at 25 uM incubated for 72 hrs by MTT assay relative to control; type: functional
U-87 MG [13] = assay: Antiproliferative activity against human U87 cells assessed as cell growth inhibition at 25 uM incubated for 72 hrs by MTT assay relative to control; type: functional, U-87MG ATCC
MCF7 [14] = assay: Antiproliferative activity against human MCF7 cells assessed as cell growth inhibition at 25 uM incubated for 72 hrs by MTT assay relative to control; type: functional
A2780 [15] = assay: Antiproliferative activity against human A2780 cells assessed as cell growth inhibition at 25 uM incubated for 72 hrs by MTT assay relative to control; type: functional
NCI-H460 [16] = assay: Antiproliferative activity against human NCI-H460 cells assessed as cell growth inhibition at 25 uM incubated for 72 hrs by MTT assay relative to control; type: functional
A-431 [17] = assay: Antiproliferative activity against human A-431 cells assessed as cell growth inhibition at 25 uM incubated for 72 hrs by MTT assay relative to control; type: functional
DU-145 [18] = assay: Antiproliferative activity against human DU-145 cells assessed as cell growth inhibition at 25 uM incubated for 72 hrs by MTT assay relative to control; type: functional
BE(2)-C [19] = assay: Antiproliferative activity against human BE2C cells assessed as cell growth inhibition at 25 uM incubated for 72 hrs by MTT assay relative to control; type: functional
[20] = Antiproliferative activity against human SJG2 cells assessed as cell growth inhibition at 25 uM incubated for 72 hrs by MTT assay relative to control; type: functional; conditions: SJ-G2
MIA PaCa-2 [21] = assay: Antiproliferative activity against human MIA PaCa-2 cells assessed as cell growth inhibition at 25 uM incubated for 72 hrs by MTT assay relative to control; type: functional
[22] = Cytotoxicity against human MCF-10A cells assessed as cell growth inhibition at 25 uM incubated for 72 hrs by MTT assay relative to control; type: toxicity, cell-based

Compound	GI50 (HT-29 [1]) [µM]	GI50 (U-87 MG [2]) [µM]	GI50 (MCF7 [3]) [µM]	GI50 (A2780 [4]) [µM]	GI50 (NCI-H460 [5]) [µM]	GI50 (A-431 [6]) [µM]	GI50 (DU-145 [7]) [µM]	GI50 (BE(2)-C [8]) [µM]	GI50 [9] [µM]	GI50 (MIA PaCa-2 [10]) [µM]	GI50 at 72 h [11] [µM]	inhibition at 25 µM (HT-29 [12]) [%]	inhibition at 25 µM (U-87 MG [13]) [%]	inhibition at 25 µM (MCF7 [14]) [%]	inhibition at 25 µM (A2780 [15]) [%]	inhibition at 25 µM (NCI-H460 [16]) [%]	inhibition at 25 µM (A-431 [17]) [%]	inhibition at 25 µM (DU-145 [18]) [%]	inhibition at 25 µM (BE(2)-C [19]) [%]	inhibition at 25 µM [20] [%]	also measured
O=c1[nH]c(/C=C/c2ccc(O)cc2)nc2ccccc12	0.35	0.48	0.22	0.3	0.37	0.28	0.35	0.25	0.29	0.34	0.38	> 100	> 100	> 100	> 100	> 100	> 100	> 100	> 100	> 100	inhibition at 25 µM (MIA PaCa-2 [21]): > 100%; inhibition at 72 h, 25 µM [22]: > 100%
CCCCCCCCC1NC(=O)c2ccccc2N1 (centres undefined)	13	> 50	2.9	4.2	14	7.1	> 50	9.2	13	12	11	93	39	> 100	96	61	91	53	85	77	inhibition at 25 µM (MIA PaCa-2 [21]): 75%; inhibition at 72 h, 25 µM [22]: 80%
O=C1NC(c2cccc(C(F)(F)F)c2)Nc2ccccc21 (centres undefined)	2.9	3.2	5.6	2.9	3.2	2.7	3	3.1	3.3	4.4	3.1	> 100	> 100	83	100	100	> 100	> 100	> 100	> 100	inhibition at 25 µM (MIA PaCa-2 [21]): 95%; inhibition at 72 h, 25 µM [22]: > 100%
O=C1NC(/C(Br)=C/c2ccccc2)Nc2ccccc21 (centres undefined)	2.6	5.7	8.5	5	4.7	8.2	3.1	10	12	12	2.9	> 100	95	> 100	94	97	> 100	> 100	87	> 100	inhibition at 25 µM (MIA PaCa-2 [21]): 81%; inhibition at 72 h, 25 µM [22]: 99%
COC(=O)c1cccc(/C=C/c2nc3ccccc3c(=O)[nH]2)c1	3.8	32	2.2	4.8	7.2	6.2	16	8.5	5.5	5.6	8.5	40	11	77	16	34	8	32	47	43	inhibition at 25 µM (MIA PaCa-2 [21]): 39%; inhibition at 72 h, 25 µM [22]: 48%
O=C1NC(c2ccc3ccccc3c2)Nc2ccccc21 (centres undefined)	2.7	5	2.8	2.9	2.9	3	4.2	2.9	2.8	2.8	3.5	> 100	94	135	> 100	100	> 100	> 100	98	> 100	inhibition at 25 µM (MIA PaCa-2 [21]): > 100%; inhibition at 72 h, 25 µM [22]: 99%
O=C1NC(c2cccc(Br)c2)Nc2ccccc21 (centres undefined)	2.6	4.1	2	2.6	1.9	2.7	2.9	2.4	1.9	3.2	3.9	> 100	98	104	99	101	> 100	> 100	> 100	> 100	inhibition at 25 µM (MIA PaCa-2 [21]): 90%; inhibition at 72 h, 25 µM [22]: 99%
